We go through two compounds from US7507739B2, “6-[(substituted)phenyl]triazolopyrimidines as anticancer agents” (Wyeth, priority 2003, dated 2009).

The term IC50 denotes the concentration that inhibits the measured activity by half.

Data set [1] in a line: Water uptake and hydrate stability at relative humidity. Format: physicochemical. Particulars: room temperature; for water absorbed: 80-100% relative humidity, about 24 h, forms dihydrate; for stability of dihydrate: 5-100% relative humidity. As to the method: To a slurry of 5-chloro-6-{2,6-difluoro-4-[3-(methylamino)propoxy]phenyl}-N-[(1S)-2,2,2-trifluoro-1-methylethyl][1,2,4]triazolo[1,5-a]pyrimidin-7-amine hydrochloride (7.50 g, 15.0 mmol) and water (100 mL) is added sodium hydroxide solution (10 N, 2.0 mL, 20 mmol) dropwise. Then, fumaric acid (3.48 g, 30 mmol) is added. The mixture is stirred for about 15-20 min and then heated to about 65-75° C. and stirred until all of the solid dissolves. The solution is filtered and the filtrate is cooled to about 0-5° C. over about 1 h. The mixture is stirred for 1 h and then filtered and the collected solid washed with cold water and isopropanol. The solid is dried under vacuum at about 60° C./10 mmHg for about 20 h to give a white solid (6.54 g, 75%) in anhydrous form. A portion of the compound is placed in a drying dish at 80-100% relative humidity (RH) and room temperature for about 24 h.
A mixture of 5-chloro-6-{2,6-difluoro-4-[3-(methylamino)propoxy]phenyl}-N-[(1S)-2,2,2-trifluoro-1-methylethyl][1,2,4]triazolo[1,5-a]pyrimidin-7-amine (9.00 g, 19.4 mmol) and succinic acid (2.75 g, 23.3 mmol) in water (90 mL) is stirred for about 15-20 min and then heated to about 65-75° C. The solution is filtered and the filtrate is cooled to about 0-5° C. over about 1 h. The mixture is stirred for about 1 h and then filtered and the collected solid washed with cold water (2×9 mL) and cold isopropanol (9 mL). The solid is dried under vacuum at about 40° C./10 mmHg for about 20 h to give a white solid in anhydrous form (6.6 g, 73%). A portion of the compound is placed in a drying dish at 80-100% relative humidity (RH) and room temperature for about 24 h.

The next data set relates to COLO 205 cells. As to the kind of experiment: MTS cytotoxicity test with COLO 205 cells. As to conditions: 3 days, Succinate Salt. It is filed as cell-based, human. The method in brief: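 COLO 205 human colon carcinoma cells, 1000 per well, exposed 3 days at 37° C to nine 2-fold dilutions, typical final top concentration 5 μM. MTS absorbance normalized to time-0 plate; IC50 is concentration giving colour yield midway between untreated and fully killed controls.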
A general note: Formazan colour is commonly taken as a measure of viable cells.

The test system of data set [2] is H157 Human Non-Small Cell Lung Carcinoma. As to the kind of experiment: Human tumor xenograft test, H157. Format: in vivo, athymic mice. Particulars: for T/C on day 0 / T/C on day 2 / T/C on day 5 / T/C on day 8 / T/C on day 12 / T/C on day 15: days 0, 7. The procedure:
The ability of compounds of this invention to inhibit tumor growth in animals is studied in the athymic mouse xenograft standard pharmacological test. Female nu/nu mice in an outbred albino background are obtained from Charles River Laboratories (Wilmington, Mass.). Animals are injected subcutaneously on the flank with the desired tumor cell suspension. Several days later, mice with tumors of approximately 150 mm^3 are selected from those injected (staged) and randomly distributed into groups of 5-10. The day of staging is called day 0. Compounds of the invention, usually formulated in saline (exceptions are noted in tables), are administered to animals by intravenous injection or oral gavage on various schedules starting on day 0 or 1, as noted in the tables. The control group in each experiment is dosed with vehicle on the same schedule. Tumor size is measured every 3-7 days with calipers in two orthogonal dimensions, and tumor volume is calculated from the formula volume=[(length×width^2)/2].
Tumor/Control (T/C) is obtained by dividing the mean tumor volume of the treated group by the mean tumor volume of the control group on each measurement day. A treatment dose is defined as active if it produced a statistically significant T/C of 0.50 or less. A p value≦0.05, determined by one-side Student's t-test, is required for statistical significance. A treatment dose is defined as toxic if more than 10% of the animals died from a compound-related toxicity.
On the technique in general: A xenograft is tissue or cells of one species grown in another, often human tumour cells in immunodeficient mice.

Marks after values point to notes of the source that are not given here.

Turning to `CNCCCOc1cc(F)c(-c2c(Cl)nc3ncnn3c2N[C@@H](C)C(F)(F)F)c(F)c1.O=C(O)/C=C/C(=O)O` [Example 2b, 5-Chloro-6-{2,6-difluoro-4-[3-(methylamino)propoxy]phenyl}-N-[(1S)-2,2,2-trifluoro-1-methylethyl][1,2,4]triazolo[1,5-a]pyrimidin-7-amine Fumarate Salt], in data set [1], the water absorbed was determined as 5.8%; the stability of dihydrate result is “stable at room temperature and at 5-100% relative humidity”.
In the case of `CNCCCOc1cc(F)c(-c2c(Cl)nc3ncnn3c2N[C@@H](C)C(F)(F)F)c(F)c1.O=C(O)CCC(=O)O` [Example 2c, 5-Chloro-6-{2,6-difluoro-4-[3-(methylamino)propoxy]phenyl}-N-[(1S)-2,2,2-trifluoro-1-methylethyl][1,2,4]triazolo[1,5-a]pyrimidin-7-amine Succinate Salt], the 50% inhibitory concentration (IC50) in the data set with COLO 205 cells stood at 38 nM. Besides, in data set [2] (H157, 10 mg/kg IV), the “T/C on day 0” value is 1.07, the “T/C on day 2” value is given as 1.09, the “T/C on day 5” value is 1.00 and the “T/C on day 8” value is on record as 0.96. Moreover, in data set [2] (H157, 10 mg/kg IV), the “T/C on day 12” value is listed as 0.49* and the “T/C on day 15” value is on record as 0.38*. For the same compound, in data set [2] (H157, 20 mg/kg IV), the “T/C on day 0” value was 0.98, the “T/C on day 2” value was 0.96, the “T/C on day 5” value is given as 0.50** and the “T/C on day 8” value was 0.51*. For the same compound, in data set [2] (H157, 20 mg/kg IV), the “T/C on day 12” value is on record as 0.44* and the “T/C on day 15” value is on record as 0.24**. In addition, the “tumor growth inhibition (activity call)” value in data set [2] (H157 NSCLC, 20 and 10 mg/kg intravenously on days 0 and 7) was “active”. Also, in data set [1], the water absorbed is 5.8%; the stability of dihydrate entry was “stable at room temperature and at 5-100% relative humidity”.
